Source: patent US20250325517A1, “ORAL DOSAGE FORMS OF ELRAGLUSIB” (Actuate Therapeutics, Inc., priority 2022, published 2025)

Test: Kinetic solubility of six ASDs in biorelevant media (SGF, FaSSIF, FeSSIF) at 37° C., 1 and 2 h
Format: physicochemical
Experimental: The three biorelevant media were: SGF, FaSSIF, and FeSSIF. These were prepared using procedure and FaSSIF/FeSSIF/FaSSGF Powder obtained from Biorelevant.com (https://biorelevant.com/learning_center/how-make-fassif/). A suspension of each ASD was prepared in SGF, FaSSIF, and FeSSIF and each was allowed to stir at 400 rpm. An aliquot of the supernatant was taken out at 1 and 2 hours, syringe filtered using a cellulose acetate filter ([…] pore size) and analyzed by HPLC. The solubilities of each ASD in SGF, FaSSIF, and FeSSIF are presented in Table 2A-8, Table 2A-9, and Table 2A-10, respectively. […] In addition, at 2 hours the remaining solids were analyzed by XRPD. […] These peaks correspond to residual FeSSIF buffer crystallizing on the ASD solids upon drying. (See Tables 2A-8, -9, and -10).

In the case of `Cn1cc(C2=C(c3coc4ccc(F)cc34)C(=O)NC2=O)c2cc3c(cc21)OCO3` [NA], the “1 hr solubility in FeSSIF (n = 2)” value (37° C., 400 rpm) was 5 µg/mL, the “2 hr solubility in FeSSIF (n = 2)” value (37° C., 400 rpm) was 6 µg/mL and the “XRPD after FeSSIF” value (solids remaining at 2 hours) was “Form I + one peak ~9°”.
